Laboratory results from ChEMBL document CHEMBL4813963, “Discovery of pyrazolo-thieno[3,2-d]pyrimidinylamino-phenyl acetamides as type-II pan-tropomyosin receptor kinase (TRK) inhibitors: Design, synthesis, and biological evaluation” (Eur J Med Chem, 2021).

Key:
[1] = molecular target: High affinity nerve growth factor receptor (Homo sapiens, UniProt P04629); assay: Inhibition of recombinant His-tagged human TRKA (441 to 796 residues) expressed in baculovirus expression system at 20 uM using 5-FAM-EEPLYWSFPAKKK-CONH2 as substrate preincubated for 1 hr followed by substrate addition in presence of ATP by mobility shift assay relative to control
KM12 = assay: Cytotoxicity against human KM12 cells assessed as reduction in cell viability incubated for 72 hrs by resazurin based assay; assay type: functional; details: KM12, 72 h

High affinity nerve growth factor receptor, sequence (P04629 33-796 limits assumed): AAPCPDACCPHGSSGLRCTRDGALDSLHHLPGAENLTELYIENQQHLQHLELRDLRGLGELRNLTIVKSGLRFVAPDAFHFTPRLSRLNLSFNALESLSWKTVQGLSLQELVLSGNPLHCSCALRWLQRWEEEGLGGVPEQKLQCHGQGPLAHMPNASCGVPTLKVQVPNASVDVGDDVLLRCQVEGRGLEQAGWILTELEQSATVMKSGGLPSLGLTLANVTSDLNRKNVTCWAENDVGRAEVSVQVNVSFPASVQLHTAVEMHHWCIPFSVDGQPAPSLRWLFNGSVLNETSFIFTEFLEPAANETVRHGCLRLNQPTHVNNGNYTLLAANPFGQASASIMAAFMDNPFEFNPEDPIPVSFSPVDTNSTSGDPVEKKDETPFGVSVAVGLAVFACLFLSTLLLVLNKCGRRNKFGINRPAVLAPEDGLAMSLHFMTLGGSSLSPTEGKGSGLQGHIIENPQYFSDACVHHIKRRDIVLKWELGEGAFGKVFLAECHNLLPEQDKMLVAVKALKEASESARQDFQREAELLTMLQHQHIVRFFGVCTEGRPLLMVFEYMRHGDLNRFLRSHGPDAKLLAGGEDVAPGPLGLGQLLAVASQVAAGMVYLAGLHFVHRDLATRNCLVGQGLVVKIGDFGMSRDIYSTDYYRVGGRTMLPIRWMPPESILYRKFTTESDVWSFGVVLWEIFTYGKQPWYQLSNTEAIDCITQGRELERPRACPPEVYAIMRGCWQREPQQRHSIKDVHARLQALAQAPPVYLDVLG

| Compound | inhibition [1] | IC50 (KM12) |
| --- | --- | --- |
| O=C(Cc1ccc(-c2ncnc3ccsc23)cc1)N[C@@H]1CCCC[C@H]1O | 18% | > 200 µM |
| O=C(c1ccc(Nc2ncnc3ccsc23)cc1)N1CCCCC1 | 16.5% | 150 µM |
| COc1ccc(Nc2ncnc3ccsc23)cc1 | 18% | 103 µM |
